The test system of this experiment is MDA-MB-468 cells. The experiment in a line: Transwell invasion assay through collagen I, MDA-MB-468. The experiment is classed as cell-based. The conditions noted are these: collagen 1 Transwell, 16 h after treatment; "these effects" = decrease in basal and NGF-induced invasion. Here is the method:
Transwell invasion assays were performed to assess cancer cell invasion in a Transwell chamber containing a collagen I-coated membrane (12-wells with inserts and […] pore size membranes; Corning, Life Sciences). A total of 1 × 10^6 starved cells (0.1% in SVF medium) were plated in the top chamber and incubated for 10 min before treatment with a peptide (50 ng/mL for 30 min); NGF was added to the lower chamber. […] and stained with Hoechst 33258 (1 mg/mL) for 30 min, and the cells that invaded the lower surface through the pores of the inserts were automatically counted under an inverted microscope with ImageJ software (with an in-house-developed plug-in).
Supplementary file 13046_2022_2314_MOESM3_ESM.pdf: Additional file 3: Supplementary Figure 1. Validation of the ectopic expression of CD44 and/or TrkA in COS-7 cells. The expression of all CD44 isoforms (A), CD44 variant 3 (B), CD44 variant 6 (C) and TrkA ([…]; D) was evaluated by RT–qPCR (normalized using PUM-1). No expression of CD44, CD44 variants [3 or 6] or TrkA was detected in COS-7 cells (A-D) compared with that in cells transfected with the expression plasmid carrying each protein. […] Quantification of the PLA results was performed using ImageJ software (30 randomly chosen fields per condition of three different experiments). […] CD44v3 and CD44v6 levels at the plasma membrane were assessed by flow cytometry (A-D). […]

On to “IDDDEDFISST [Peptide 4, mimetic peptide 4 (…) corresponding to the C-terminal region of CD44v3]”, for which the “effect on invasion of MDA-MB-468 cells” value was “These effects on invasion were also observed in the MDA-MB-468 triple-negative breast cancer cell line”.
